Data as given in patent US20060069132A1, “Azolecarboxamide herbicides” (priority 2004, published 2006).
Where two headings read alike, the source gives them in different places.

Assays:
[1] = tested on: barnyardgrass; assay: Test B flooded paddy test; format: in vivo, Echinochloa crus-galli; settings: 1000 g ai/ha, visual rating, scale 0 to 100 (0 no effect, 100 complete control), 13 to 15 days
In short: (§1)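 Treated at 2-leaf (paddy) or 1–4-leaf, 2–18 cm (postemergence); greenhouse 13–15 d; visual score vs control, 0 none to 100 complete control; dash = not tested.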

[2] = tested on: ducksalad; assay: Test B flooded paddy test; format: in vivo, Heteranthera limosa; settings: 1000 g ai/ha, visual rating, scale 0 to 100 (0 no effect, 100 complete control), 13 to 15 days
In short: as §1

[3] = tested on: lambsquarters; assay: Test B pre-/postemergence herbicide test; format: in vivo, Chenopodium album
In short: (§2)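 Visual rating, 0 (no effect) to 100 (complete control), versus untreated controls after 13–15 d in greenhouse. Pre- and postemergence applications (postemergence plants 2–18 cm, 1–4 leaves); flooded paddy arm at 2-leaf stage. Compounds in non-phytotoxic solvent plus surfactant.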

[4] = tested on: barnyardgrass; assay: Test B pre-/postemergence herbicide test; format: in vivo, Echinochloa crus-galli
In short: (§3)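 Herbicidal effect was judged by eye on a 0–100 scale after plants stood 13 to 15 days in the greenhouse following pre- or postemergence treatment with surfactant-containing formulations.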

[5] = tested on: wild oat; assay: Test B postemergence herbicide test; format: in vivo, Avena fatua
In short: (§4)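 Plants grow to 1- to 4-leaf stage (2–18 cm) for postemergence spraying, or to 2-leaf stage for the paddy test. Formulated compound is applied. Greenhouse holding lasts 13–15 days. Response is scored visually relative to controls, 0 no effect to 100 complete control; a dash means no result.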

[6] = tested on: velvetleaf; assay: Test B pre-/postemergence herbicide test; format: in vivo, Abutilon theophrasti
In short: as §2

[7] = tested on: small flower umbrella sedge; assay: Test B flooded paddy test; format: in vivo, Cyperus difformis; settings: 1000 g ai/ha, visual rating, scale 0 to 100 (0 no effect, 100 complete control), 13 to 15 days
In short: as §1

[8] = tested on: corn; assay: Test B pre-/postemergence herbicide test; format: in vivo, Zea mays; settings: for Plant response rating, Corn: preemergence
In short: as §2

[9] = tested on: Surinam grass; assay: Test B pre-/postemergence herbicide test; format: in vivo, Urochloa decumbens
In short: as §2

[10] = tested on: wheat; assay: Test B postemergence herbicide test; format: in vivo, Triticum aestivum; parameters: key to Wheat plant response rating: 0 = no effect, 100 = complete control
In short: as §4

[11] = tested on: rice; assay: Test B flooded paddy test; format: in vivo, Oryza sativa; settings: 1000 g ai/ha, visual rating, scale 0 to 100 (0 no effect, 100 complete control), 13 to 15 days
In short: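 Read-out: visual comparison with controls, scored 0 to 100, where 100 means complete control and 0 no effect. Formulated chemicals were applied postemergence to plants 2–18 cm tall (1- to 4-leaf), or to flooded-paddy plants at the 2-leaf stage, then held 13 to 15 days under glass.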

[12] = tested on: pigweed; assay: Test B pre-/postemergence herbicide test; format: in vivo, Amaranthus retroflexus
In short: as §2

[13] = tested on: blackgrass; assay: Test B postemergence herbicide test; format: in vivo, Alopecurus myosuroides
In short: as §1

[14] = tested on: large crabgrass; assay: Test B pre-/postemergence herbicide test; format: in vivo, Digitaria sanguinalis
In short: as §2

[15] = tested on: morningglory; assay: Test B pre-/postemergence herbicide test; format: in vivo, Ipomoea coccinea; settings: for Plant response rating, Morningglory: preemergence
In short: as §3

[16] = tested on: cocklebur; assay: Test B pre-/postemergence herbicide test; format: in vivo, Xanthium strumarium
In short: as §3

[17] = 500 g ai/ha, visual rating 0-100, 0 no effect, 100 complete control, preemergence
[18] = Postemergence, 500 g ai/ha, visual rating after 13 to 15 days, scale 0 (no effect) to 100 (complete control)
[19] = postemergence, 125 g ai/ha, visual rating, scale 0 (no effect) to 100 (complete control)
[20] = preemergence, 125 g ai/ha, 0 to 100 scale, 0 is no effect, 100 is complete control
[21] = 500 g ai/ha, visual rating 0-100, 0 no effect, 100 complete control
[22] = 125 g ai/ha, 0 to 100 scale, 0 is no effect, 100 is complete control

CCc1cn(C(C)(C)C)nc1C(=O)Nc1cccc(C(=O)N(CC)CC)c1 [Compound 168, N-[3-[(diethylamino)carbonyl]phenyl]-1-(1,1-dimethylethyl)-4-ethyl-1H-pyrazole-3-carboxamide]
pest or weed control at 1000 g/ha ([1]; Echinochloa crus-galli, 336 h, read-out: Barnyardgrass plant response rating): 50%
pest or weed control at 1000 g/ha ([2]; Heteranthera limosa, 336 h, read-out: Ducksalad plant response rating): 70%
pest or weed control at 31 g/ha ([3]; Chenopodium album, post-emergence, 336 h, postemergence, 31 g ai/ha, scale 0 to 100, read-out: Lambsquarters plant response rating): 50%
pest or weed control at 125 g/ha ([3]; Chenopodium album, post-emergence, 336 h, postemergence, 125 g ai/ha, visual rating, scale 0 (no effect) to 100 (complete control), read-out: Lambsquarters plant response rating): 70%
pest or weed control at 125 g/ha ([3]; Chenopodium album, pre-emergence, 336 h, 125 g ai/ha, 0 = no effect, 100 = complete control, read-out: Lambsquarters plant response rating (0 to 100 scale)): 90%
pest or weed control at 31 g/ha ([4]; Echinochloa crus-galli, post-emergence, postemergence, 31 g ai/ha, scale 0 to 100, read-out: Barnyardgrass plant response rating): 0%
pest or weed control at 125 g/ha ([4]; Echinochloa crus-galli, post-emergence, postemergence, 125 g ai/ha, visual rating, scale 0 (no effect) to 100 (complete control), read-out: Barnyardgrass plant response rating): 50%
pest or weed control at 125 g/ha ([4]; Echinochloa crus-galli, pre-emergence, 125 g ai/ha, 0 = no effect, 100 = complete control, read-out: Barnyardgrass plant response rating (0 to 100 scale)): 70%
pest or weed control at 31 g/ha ([5]; Avena fatua, post-emergence, 336 h, postemergence, 31 g ai/ha, scale 0 to 100, read-out: Oat, Wild plant response rating): 10%
pest or weed control at 125 g/ha ([5]; Avena fatua, post-emergence, 336 h, postemergence, 125 g ai/ha, visual rating, scale 0 (no effect) to 100 (complete control), read-out: Oat, Wild plant response rating): 20%
pest or weed control at 31 g/ha ([6]; Abutilon theophrasti, post-emergence, 336 h, postemergence, 31 g ai/ha, scale 0 to 100, read-out: Velvetleaf plant response rating): 10%
pest or weed control at 125 g/ha ([6]; Abutilon theophrasti, post-emergence, 336 h, postemergence, 125 g ai/ha, visual rating, scale 0 (no effect) to 100 (complete control), read-out: Velvetleaf plant response rating): 20%
pest or weed control at 125 g/ha ([6]; Abutilon theophrasti, pre-emergence, 336 h, 125 g ai/ha, 0 = no effect, 100 = complete control, read-out: Velvetleaf plant response rating (0 to 100 scale)): 60%
pest or weed control at 1000 g/ha ([7]; Cyperus difformis, 336 h, read-out: Sedge, Umbrella plant response rating): 90%
plant injury at 31 g/ha ([8]; Zea mays, post-emergence, postemergence, 31 g ai/ha, scale 0 to 100, read-out: Corn plant response rating): 10%
plant injury at 125 g/ha ([8]; Zea mays, post-emergence, postemergence, 125 g ai/ha, visual rating, scale 0 (no effect) to 100 (complete control), read-out: Corn plant response rating): 50%
plant injury at 125 g/ha ([8]; Zea mays, pre-emergence, 125 g ai/ha, 0 = no effect, 100 = complete control, read-out: Corn plant response rating (0 to 100 scale)): 0%
pest or weed control at 31 g/ha ([9]; Urochloa decumbens, post-emergence, postemergence, 31 g ai/ha, scale 0 to 100, read-out: Surinam Grass plant response rating): 10%
pest or weed control at 125 g/ha ([9]; Urochloa decumbens, post-emergence, postemergence, 125 g ai/ha, visual rating, scale 0 (no effect) to 100 (complete control), read-out: Surinam Grass plant response rating): 20%
pest or weed control at 125 g/ha ([9]; Urochloa decumbens, pre-emergence, 125 g ai/ha, 0 = no effect, 100 = complete control, read-out: Surinam Grass plant response rating (0 to 100 scale)): 50%
plant injury at 31 g/ha ([10]; Triticum aestivum, post-emergence, 336 h, postemergence, 31 g ai/ha, scale 0 to 100, read-out: Wheat plant response rating): 0%
plant injury at 125 g/ha ([10]; Triticum aestivum, post-emergence, 336 h, postemergence, 125 g ai/ha, visual rating, scale 0 (no effect) to 100 (complete control), read-out: Wheat plant response rating): 20%
plant injury at 1000 g/ha ([11]; Oryza sativa, 336 h, read-out: Rice plant response rating): 40%
pest or weed control at 31 g/ha ([12]; Amaranthus retroflexus, post-emergence, 336 h, postemergence, 31 g ai/ha, scale 0 to 100, read-out: Pigweed plant response rating): 50%
pest or weed control at 125 g/ha ([12]; Amaranthus retroflexus, post-emergence, 336 h, postemergence, 125 g ai/ha, visual rating, scale 0 (no effect) to 100 (complete control), read-out: Pigweed plant response rating): 70%
pest or weed control at 125 g/ha ([12]; Amaranthus retroflexus, pre-emergence, 336 h, 125 g ai/ha, 0 = no effect, 100 = complete control, read-out: Pigweed plant response rating (0 to 100 scale)): 100%
pest or weed control at 31 g/ha ([13]; Alopecurus myosuroides, post-emergence, 336 h, postemergence, 31 g ai/ha, scale 0 to 100, read-out: Blackgrass plant response rating): 0%
pest or weed control at 125 g/ha ([13]; Alopecurus myosuroides, post-emergence, 336 h, postemergence, 125 g ai/ha, visual rating, scale 0 (no effect) to 100 (complete control), read-out: Blackgrass plant response rating): 10%
pest or weed control at 31 g/ha ([14]; Digitaria sanguinalis, post-emergence, postemergence, 31 g ai/ha, scale 0 to 100, read-out: Crabgrass, Large plant response rating): 10%
pest or weed control at 125 g/ha ([14]; Digitaria sanguinalis, post-emergence, postemergence, 125 g ai/ha, visual rating, scale 0 (no effect) to 100 (complete control), read-out: Crabgrass, Large plant response rating): 20%
pest or weed control at 125 g/ha ([14]; Digitaria sanguinalis, pre-emergence, 125 g ai/ha, 0 = no effect, 100 = complete control, read-out: Crabgrass, Large plant response rating (0 to 100 scale)): 100%
pest or weed control at 31 g/ha ([15]; Ipomoea, post-emergence, 336 h, postemergence, 31 g ai/ha, scale 0 to 100, read-out: Morningglory plant response rating): 20%
pest or weed control at 125 g/ha ([15]; Ipomoea, post-emergence, 336 h, postemergence, 125 g ai/ha, visual rating, scale 0 (no effect) to 100 (complete control), read-out: Morningglory plant response rating): 70%
pest or weed control at 125 g/ha ([15]; Ipomoea, pre-emergence, 336 h, 125 g ai/ha, 0 = no effect, 100 = complete control, read-out: Morningglory plant response rating (0 to 100 scale)): 0%
pest or weed control at 31 g/ha ([16]; Xanthium strumarium, post-emergence, postemergence, 31 g ai/ha, scale 0 to 100, read-out: Cocklebur plant response rating): 30%
pest or weed control at 125 g/ha ([16]; Xanthium strumarium, post-emergence, postemergence, 125 g ai/ha, visual rating, scale 0 (no effect) to 100 (complete control), read-out: Cocklebur plant response rating): 70%
pest or weed control at 125 g/ha ([16]; Xanthium strumarium, pre-emergence, 125 g ai/ha, 0 = no effect, 100 = complete control, read-out: Cocklebur plant response rating (0 to 100 scale)): 0%

CC(=NO)c1cccc(NC(=O)c2cc(C(C)(C)C)nn2CCF)c1 [Compound 115]
Barnyardgrass plant response rating [1]: 90
Ducksalad plant response rating [2]: 90
Plant response rating, Lambsquarters [3, 17]: 100
Plant response rating, Lambsquarters [3, 18]: 100
Lambsquarters plant response rating [3, 19]: 80
Plant response rating, Lambsquarters [3, 20]: 100
Plant response rating, Barnyardgrass [4, 17]: 100
Plant response rating, Barnyardgrass [4, 18]: 50
Barnyardgrass plant response rating [4, 19]: 10
Plant response rating, Barnyardgrass [4, 20]: 80
Plant response rating, Oat, Wild [5, 18]: 30
Oat, Wild plant response rating [5, 19]: 10
Plant response rating, Velvetleaf [6, 17]: 100
Plant response rating, Velvetleaf [6, 18]: 80
Velvetleaf plant response rating [6, 19]: 60
Plant response rating, Velvetleaf [6, 20]: 80
Sedge, Umbrella plant response rating [7]: 90
Plant response rating, Corn [8, 21]: 30
Plant response rating, Corn [8, 22]: 0
Plant response rating, Surinam Grass [9, 17]: 70
Plant response rating, Surinam Grass [9, 18]: 60
Surinam Grass plant response rating [9, 19]: 60
Plant response rating, Surinam Grass [9, 20]: 70
Plant response rating, Wheat [10, 18]: 30
Wheat plant response rating [10, 19]: 30
Rice plant response rating [11]: 60
Plant response rating, Pigweed [12, 17]: 100
Plant response rating, Pigweed [12, 18]: 100
Pigweed plant response rating [12, 19]: 80
Plant response rating, Pigweed [12, 20]: 80
Plant response rating, Blackgrass [13, 18]: 20
Blackgrass plant response rating [13, 19]: 10
Plant response rating, Crabgrass, Large [14, 17]: 100
Plant response rating, Crabgrass, Large [14, 18]: 30
Crabgrass, Large plant response rating [14, 19]: 10
Plant response rating, Crabgrass, Large [14, 20]: 90
Plant response rating, Morningglory [15, 21]: 90
Plant response rating, Morningglory [15, 22]: 30
Plant response rating, Cocklebur [16, 17]: 40
Plant response rating, Cocklebur [16, 18]: 90
Cocklebur plant response rating [16, 19]: 80
Plant response rating, Cocklebur [16, 20]: 20
